Laboratory results reported in EP3634580B1, “COMPOSITIONS COMPRISING LACTULOSE FOR MAINTAINING OR IMPROVING GUT HEALTH IN HUMANS” (Fresenius Kabi Austria GmbH, priority 2017, dated 2018).

Tests used:
[1] = test system: colon microbiota of human origin; experiment: TIM-2 in vitro model of the proximal colon: short-chain fatty acids (SCFA) production; format: cell-based; details: mean of n = 2
Experimental: (§1) Crystalline lactulose was administered daily for 5 days to the TNO Intestinal Model (TIM-2), an in vitro model of the proximal colon. NaOH consumption, short-chain fatty acids (SCFA) production, ammonia production as well as relative abundance of microbiota were analyzed.
(§2) The substance administered in this study was lactulose crystals (S.C.M. Società Chimica Mugello S.r.l., Vicchio, Italy). Experiments without the addition of lactulose served as negative control.
(§3) The TNO Intestinal Model (TIM-2) is a dynamic in vitro model of the proximal colon. The TIM-2 system was inoculated with a highly metabolically active colon microbiota of human origin. In the system the following standardized conditions were simulated: body temperature; pH in the lumen of the proximal colon (pH 5.8); delivery of a substrate from the 'ileum' (SIEM; Standardized Ileum Efflux Medium); mixing and transport of the intestinal contents; anaerobiosis; absorption of water and absorption of fermentation products, metabolites and other low molecular weight compounds (via a semipermeable membrane inside the colon model).
(§4) SIEM simulates material passing the ileocecal valve in humans. It contained the major non-digestible carbohydrates (pectin, xylan, arabinogalactan, amylopectin, starch) found in a normal western diet as well as protein (bactopepton, casein), ox-bile, Tween 80 as well as vitamins and minerals. SIEM was added to the system at a speed of 2.5 mL/h and the speed of the dialysis liquid was 1.5 mL/min. During the experiment, the intestinal contents were mixed continuously by the peristaltic movements of the TIM-2 system. In order to simulate the transit of the chime from proximal to distal colon, 25 mL of the lumen was removed every 24 h and discarded.
(§5) Before performing each experiment, the system was inoculated with a standardized microbiota of human origin. This standardized microbiota was prepared using fecal donations from a group of 4 healthy volunteers (3 females, 1 male, age 38.8 ± 3.9 years; BMI (body mass index) 24.2 ± 1.5 kg/m^2). Individuals provided signed informed consent before participation, were non-smokers and had not used antibiotics, prebiotics, probiotics or laxatives within 1 month before the stool donation.
(§6) At the start of the adaptation period the microbiota was allowed to adapt to the model conditions and SIEM for 16 h. After the adaptation period the 120 h test period started in which lactulose was added to TIM-2 once daily.
(§7) Lactulose was added to the system at daily doses of 2 g, 3 g, 4 g, and 5 g lactulose. Each dose as well as the control experiment was studied in duplicate (n = 2). The test period of the TIM-2 experiments lasted 120 h (5 consecutive days).
Metabolites like the short-chain fatty acids (SCFA) and ammonia produced in TIM-2 were continuously removed from the lumen by a semipermeable membrane unit. This dialysate was collected at the start of the test period and after 24, 48, 72, 96, and 120 h.
The lumen and dialysate fractions of TIM-2 were analyzed using gas chromatography for SCFA (acetate, propionate and butyrate). Dialysate samples were directly used. Lumen samples were centrifuged (12,000 rpm at 4 °C for 10 min).

Bifidobacterium = experiment: TIM-2 microbiota composition by V4 16S rDNA amplicon sequencing; format: cell-based, human; details: for Average number of the bacterial genus Bifidobacterium: after 120 h of exposure in TIM-2, control 28,345
Experimental: as §1, §2, §3, §4, §5, §6, §7
(§8) At the beginning and end of the experiment (t = 0 h and t = 120 h) luminal samples were used to investigate the composition of the microbiota. The samples were snap frozen in liquid nitrogen and stored at ≤ -72 °C until analysis.
(§9) The bacterial population in the TIM-2 samples was analyzed using Next Generation sequencing. Total DNA from the collected TIM-2 lumen samples at the start (t = 0 h) and at the end (t = 120 h) of the experiments was isolated. To determine the recovery of bacterial DNA from the samples, a quantitative polymerase chain reaction (qPCR) using primers specific for the bacterial 16S rRNA gene was used. Changes in the microbiota composition were analyzed by using mass V4 16S rDNA amplicon sequencing. Processing of the sequencing data was done using the Mothur pipeline.

Lactobacillus = experiment: as above; format: cell-based, human; details: for Average number of the bacterial genus Lactobacillus: after 120 h of exposure in TIM-2, control 82
Experimental: as §1, §2, §3, §4, §5, §6, §7, §8, §9

[2] = lactulose 4 g daily, 0 h (values at the start set to zero), control 0
[3] = lactulose 5 g daily, 0 h (values at the start set to zero), control 0
[4] = after 120 h in TIM-2, versus control

OC[C@H]1O[C@@H](O[C@@H]2[C@@H](CO)OC(O)(CO)[C@H]2O)[C@H](O)[C@@H](O)[C@H]1O (mixture of isomers) [Lactulose, lactulose]
Cumulative production of total short chain fatty acids (SCFA) ([1]; lactulose 3 g daily, 24 h, control 62): 85 mmol
Cumulative production of butyrate ([1]; lactulose 3 g daily, 48 h, control 18): 27 mmol
Cumulative production of total short chain fatty acids (SCFA) ([1]; lactulose 3 g daily, 48 h, control 129): 175 mmol
Cumulative production of butyrate ([1]; lactulose 3 g daily, 72 h, control 31): 40 mmol
Cumulative production of total short chain fatty acids (SCFA) ([1]; lactulose 3 g daily, 72 h, control 194): 256 mmol
Cumulative production of butyrate ([1]; lactulose 3 g daily, 96 h, control 44): 54 mmol
Cumulative production of total short chain fatty acids (SCFA) ([1]; lactulose 3 g daily, 96 h, control 257): 340 mmol
Cumulative production of butyrate ([1]; lactulose 3 g daily, 120 h, control 58): 68 mmol
Cumulative production of total short chain fatty acids (SCFA) ([1]; lactulose 3 g daily, 120 h, control 320): 427 mmol
Cumulative production of butyrate [1, 2]: 0 mmol
Cumulative production of total short chain fatty acids (SCFA) [1, 2]: 0 mmol
Cumulative production of butyrate ([1]; lactulose 4 g daily, 24 h, control 7): 12 mmol
Cumulative production of total short chain fatty acids (SCFA) ([1]; lactulose 4 g daily, 24 h, control 62): 97 mmol
Cumulative production of butyrate ([1]; lactulose 4 g daily, 48 h, control 18): 30 mmol
Cumulative production of total short chain fatty acids (SCFA) ([1]; lactulose 4 g daily, 48 h, control 129): 216 mmol
Cumulative production of butyrate ([1]; lactulose 4 g daily, 72 h, control 31): 47 mmol
Cumulative production of total short chain fatty acids (SCFA) ([1]; lactulose 4 g daily, 72 h, control 194): 310 mmol
Cumulative production of butyrate ([1]; lactulose 4 g daily, 96 h, control 44): 70 mmol
Cumulative production of total short chain fatty acids (SCFA) ([1]; lactulose 4 g daily, 96 h, control 257): 405 mmol
Cumulative production of butyrate ([1]; lactulose 4 g daily, 120 h, control 58): 93 mmol
Cumulative production of total short chain fatty acids (SCFA) ([1]; lactulose 4 g daily, 120 h, control 320): 500 mmol
Cumulative production of butyrate [1, 3]: 0 mmol
Cumulative production of total short chain fatty acids (SCFA) [1, 3]: 0 mmol
Cumulative production of butyrate ([1]; lactulose 5 g daily, 24 h, control 7): 8 mmol
Cumulative production of total short chain fatty acids (SCFA) ([1]; lactulose 5 g daily, 24 h, control 62): 84 mmol
Cumulative production of butyrate ([1]; lactulose 5 g daily, 48 h, control 18): 29 mmol
Cumulative production of total short chain fatty acids (SCFA) ([1]; lactulose 5 g daily, 48 h, control 129): 214 mmol
Cumulative production of butyrate ([1]; lactulose 5 g daily, 72 h, control 31): 53 mmol
Cumulative production of total short chain fatty acids (SCFA) ([1]; lactulose 5 g daily, 72 h, control 194): 309 mmol
Cumulative production of butyrate ([1]; lactulose 5 g daily, 96 h, control 44): 84 mmol
Cumulative production of total short chain fatty acids (SCFA) ([1]; lactulose 5 g daily, 96 h, control 257): 430 mmol
Cumulative production of butyrate ([1]; lactulose 5 g daily, 120 h, control 58): 118 mmol
Cumulative production of total short chain fatty acids (SCFA) ([1]; lactulose 5 g daily, 120 h, control 320): 520 mmol
abundance of Bifidobacterium (in words) (Bifidobacterium; [4]): increased the abundance
Average number of the bacterial genus Bifidobacterium (Bifidobacterium; lactulose 2 g daily): 24,781
Average number of the bacterial genus Bifidobacterium (Bifidobacterium; lactulose 3 g daily): 17,424
Average number of the bacterial genus Bifidobacterium (Bifidobacterium; lactulose 4 g daily): 135,876
Average number of the bacterial genus Bifidobacterium (Bifidobacterium; lactulose 5 g daily): 116,792
abundance of Lactobacillus (in words) (Lactobacillus; [4]): increased the abundance
Average number of the bacterial genus Lactobacillus (Lactobacillus; lactulose 2 g daily): 1,623
Average number of the bacterial genus Lactobacillus (Lactobacillus; lactulose 3 g daily): 1,504
Average number of the bacterial genus Lactobacillus (Lactobacillus; lactulose 4 g daily): 12,047
Average number of the bacterial genus Lactobacillus (Lactobacillus; lactulose 5 g daily): 912
